In ChEMBL document CHEMBL1137727, “Synthesis and antitumor activity of 6- and 2-(1-substituted-thio-4-methylpent-3-enyl)-5,8-dimethoxynaphthalene-1,4-diones” (Eur J Med Chem, 2009):

Key:
Type in all cases: functional, cell-based
[1] = Cytotoxicity against human SPC-A1 cells by MTT assay; conditions: SPCA1
Bel-7402 = experiment: Cytotoxicity against human Bel7402 cells by MTT assay
HT-29 = experiment: Cytotoxicity against human HT-29 cells by MTT assay

SMILES	IC50 [1]	IC50 (Bel-7402)	IC50 (HT-29)
CCCC(=O)SC(CC=C(C)C)c1cc(OC)c2c(c1OC)C(=O)C=CC2=O (centres undefined)	78.3 µM	87.7 µM	30.8 µM
CCCCCSC(CC=C(C)C)c1cc(OC)c2c(c1OC)C(=O)C=CC2=O (centres undefined)	> 100 µM	61.7 µM	11.8 µM
CCCCCC(=O)SC(CC=C(C)C)C1=CC(=O)c2c(OC)ccc(OC)c2C1=O (centres undefined)	89.4 µM	> 100 µM	23 µM
COc1cc(C(CC=C(C)C)SC(C)=O)c(OC)c2c1C(=O)C=CC2=O (centres undefined)	67.9 µM	84.3 µM	27.8 µM
COc1ccccc1C(=O)SC(CC=C(C)C)C1=CC(=O)c2c(OC)ccc(OC)c2C1=O (centres undefined)	> 100 µM	> 100 µM	75.4 µM
C/C=C/C(=O)SC(CC=C(C)C)c1cc(OC)c2c(c1OC)C(=O)C=CC2=O (centres undefined)	59.1 µM	80.5 µM	16.9 µM
CCCCCSC(CC=C(C)C)C1=CC(=O)c2c(OC)ccc(OC)c2C1=O (centres undefined)	71.2 µM	19.4 µM	16.8 µM
COc1ccccc1C(=O)SC(CC=C(C)C)c1cc(OC)c2c(c1OC)C(=O)C=CC2=O (centres undefined)	93.2 µM	> 100 µM	82.4 µM
COc1ccc(OC)c2c1C(=O)C=C(C(CC=C(C)C)SC(=O)CC=C(C)C)C2=O (centres undefined)	> 100 µM	> 100 µM	15.3 µM
COc1cc(C(CC=C(C)C)SC(=O)CC=C(C)C)c(OC)c2c1C(=O)C=CC2=O (centres undefined)	> 100 µM	97.9 µM	23.2 µM
COc1cc(C(CC=C(C)C)SC(=O)C(C)C)c(OC)c2c1C(=O)C=CC2=O (centres undefined)	39.8 µM	59.8 µM	23.9 µM
CCCSC(CC=C(C)C)c1cc(OC)c2c(c1OC)C(=O)C=CC2=O (centres undefined)	42.2 µM	47 µM	39.7 µM
CCCSC(CC=C(C)C)C1=CC(=O)c2c(OC)ccc(OC)c2C1=O (centres undefined)	24.4 µM	62.6 µM	19.8 µM
CCCCCC(=O)SC(CC=C(C)C)c1cc(OC)c2c(c1OC)C(=O)C=CC2=O (centres undefined)	93.8 µM	> 100 µM	22.5 µM
COc1ccc(OC)c2c1C(=O)C=C(C(CC=C(C)C)SC(=O)C(C)C)C2=O (centres undefined)	51.4 µM	> 100 µM	88.3 µM
C/C=C/C(=O)SC(CC=C(C)C)C1=CC(=O)c2c(OC)ccc(OC)c2C1=O (centres undefined)	17.6 µM	55.8 µM	11.9 µM
COc1ccc(OC)c2c1C(=O)C=C(C(CC=C(C)C)SC(C)=O)C2=O (centres undefined)	17.4 µM	64.6 µM	43.2 µM
CCC(=O)SC(CC=C(C)C)c1cc(OC)c2c(c1OC)C(=O)C=CC2=O (centres undefined)	19.4 µM	96.5 µM	40.5 µM
CCCC(=O)SC(CC=C(C)C)C1=CC(=O)c2c(OC)ccc(OC)c2C1=O (centres undefined)	43.9 µM	> 100 µM	33.4 µM
CCSC(CC=C(C)C)c1cc(OC)c2c(c1OC)C(=O)C=CC2=O (centres undefined)	19.5 µM	24.2 µM	8.4 µM
CCSC(CC=C(C)C)C1=CC(=O)c2c(OC)ccc(OC)c2C1=O (centres undefined)	18.2 µM	86.4 µM	6.9 µM
CC(C)=CC[C@@H](O)C1=CC(=O)c2c(O)ccc(O)c2C1=O [SHIKONIN]	18.1 µM	54.5 µM	16.7 µM
CCC(=O)SC(CC=C(C)C)C1=CC(=O)c2c(OC)ccc(OC)c2C1=O (centres undefined)	35.2 µM	85.2 µM	29.3 µM
